In US8815901B2 (Novartis AG, priority 2008, dated 2014):

Biological target: FGFR3 kinase (Homo sapiens (Human), UniProt P22607, K650E)
Assay: FGFR3 kinase inhibition assay (radiometric filter binding / LanthaScreen TR-FRET)
Format: biochemical
Conditions: read-out: rating (FGFR3 kinase IC50)
Experimental: Enzyme activities were measured by mixing 10 μL of a 3-fold concentrated compound solution or control with 10 μL of the corresponding substrate mixture (peptidic substrate, ATP and [γ^33P]ATP). The reactions were initiated by addition of 10 μL of a 3-fold concentrated solution of the respective enzyme in assay buffer.
Filter binding (FB) method: FB assays were carried out in 96-well plates at room temperature for 10 min in a finial volume of 30 μL including the components as indicated in section above. […] After spotting, vacuum was connected and each well rinsed with 200 μL 0.5% H3PO4. Free membranes were removed and washed 4 times on a shaker with 1% H3PO4 and once with ethanol. Membranes were dried and overlaid with addition of 10 μL/well of a scintillation fluid. The plates were eventually sealed and counted in a microplate scintillation counter. IC50 values were calculated by linear regression analysis of the percentage inhibition of the compound.
The assay has been run at room temperature on a liquid handling robot. […] After an incubation time of 45 min in the dark, the plates were transferred into a fluorescence reader for counting.
Compounds of formula (I) are assayed to measure their capacity to inhibit FGFR3 kinase as described above.

Sequence of FGFR3 kinase (P22607 23-806 K650E): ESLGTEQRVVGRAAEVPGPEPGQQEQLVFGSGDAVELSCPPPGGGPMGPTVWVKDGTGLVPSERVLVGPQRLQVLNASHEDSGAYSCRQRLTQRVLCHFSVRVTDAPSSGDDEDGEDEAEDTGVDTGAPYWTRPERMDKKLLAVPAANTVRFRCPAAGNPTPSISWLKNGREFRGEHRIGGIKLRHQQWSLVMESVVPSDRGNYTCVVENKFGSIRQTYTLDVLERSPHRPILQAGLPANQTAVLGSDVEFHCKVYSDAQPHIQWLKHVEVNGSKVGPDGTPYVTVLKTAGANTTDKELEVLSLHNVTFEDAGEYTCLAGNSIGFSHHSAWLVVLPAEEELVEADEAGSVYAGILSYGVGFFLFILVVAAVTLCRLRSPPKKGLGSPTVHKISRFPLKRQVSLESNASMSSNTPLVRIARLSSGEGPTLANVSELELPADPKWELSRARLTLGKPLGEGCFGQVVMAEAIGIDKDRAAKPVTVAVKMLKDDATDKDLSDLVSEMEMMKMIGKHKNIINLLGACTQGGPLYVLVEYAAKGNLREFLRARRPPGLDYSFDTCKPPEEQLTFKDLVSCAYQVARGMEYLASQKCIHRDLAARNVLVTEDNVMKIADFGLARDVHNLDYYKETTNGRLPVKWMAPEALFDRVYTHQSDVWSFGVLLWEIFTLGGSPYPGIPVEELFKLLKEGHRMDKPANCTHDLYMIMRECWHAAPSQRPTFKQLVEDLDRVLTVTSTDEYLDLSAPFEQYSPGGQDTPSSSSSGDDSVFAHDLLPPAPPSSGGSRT

| SMILES | IC50 |
| --- | --- |
| COc1ccc(Cl)c(-c2ccc(C(=O)Nc3ccc(OCCN(C)C)cc3)c3nccnc23)c1 [Example 65, 8-(2-Chloro-5-methoxy-phenyl)-quinoxaline-5-carboxylic acid [4-(2-dimethylamino-ethoxy)-phenyl]-amide] | 500 to 50000 nM |
| COc1cc(OC)c(F)c(-c2ccc(C(=O)Nc3cccnc3)c3nccnc23)c1F [Example 90, 8-(2,6-Difluoro-3,5-dimethoxy-phenyl)-quinoxaline-5-carboxylic acid pyridin-3-ylamide] | 100 to 500 nM |
| COc1cc(OC)cc(-c2ccc(C(=O)Nc3ccc(CN4CCNCC4)cn3)c3nccnc23)c1 [Example 117] | 500 to 50000 nM |
| COc1cc(OC)c(Cl)c(-c2ccc(C(=O)Nc3ccc(N(C)C4CCN(C)CC4)nc3)c3nccnc23)c1Cl [Example 37, 8-(2,6-Dichloro-3,5-dimethoxy-phenyl)-quinoxaline-5-carboxylic acid {6-[methyl-(1-methyl-piperidin-4-yl)-amino]-pyridin-3-yl}-amide] | < 100 nM |
| CCN1CCN(Cc2ccc(NC(=O)c3ccc(-c4c(Cl)c(OC)cc(OC)c4Cl)c4cccnc34)nc2)CC1 [Example 165, 5-(2,6-Dichloro-3,5-dimethoxy-phenyl)-quinoline-8-carboxylic acid [5-(4-ethyl-piperazin-1-ylmethyl)-pyridin-2-yl]-amide] | 100 to 500 nM |
| COc1cc(OC)c(Cl)c(-c2ccc(C(=O)Nc3ccn(CCN(C)C)c3)c3nccnc23)c1Cl [Example 121, 8-(2,6-Dichloro-3,5-dimethoxy-phenyl)-quinoxaline-5-carboxylic acid [1-(2-dimethylamino-ethyl)-1H-pyrrol-3-yl]-amide] | 500 to 50000 nM |
| COc1cc(OC)c(Cl)c(-c2ccc(C(=O)Nc3cccnc3)c3ncc(N(C)CCN(C)C)nc23)c1Cl [Example 87, 8-(2,6-Dichloro-3,5-dimethoxy-phenyl)-2-[(2-dimethylamino-ethyl)-methyl-amino]-quinoxaline-5-carboxylic acid pyridin-3-ylamide] | 500 to 50000 nM |
| COc1cc(OC)c(Cl)c(-c2ccc(C(=O)Nc3nccn3Cc3ccccc3)c3ncccc23)c1Cl [Example 160, 5-(2,6-Dichloro-3,5-dimethoxy-phenyl)-quinoline-8-carboxylic acid (1-benzyl-1H-imidazol-2-yl)-amide] | 500 to 50000 nM |
| COc1cc(OC)c(Cl)c(-c2ccc(C(=O)Nc3ccc(O)cc3)c3nccnc23)c1Cl [Example 7, 8-(2,6-Dichloro-3,5-dimethoxy-phenyl)-quinoxaline-5-carboxylic acid (4-hydroxyphenyl)-amide] | 500 to 50000 nM |
| COc1cc(OC)c(Cl)c(-c2ccc(C(=O)Nc3cnc[nH]3)c3ncccc23)c1Cl [Example 162, 5-(2,6-Dichloro-3,5-dimethoxy-phenyl)-quinoline-8-carboxylic acid (3H-imidazol-4-yl)-amide] | 100 to 500 nM |
| COc1cc(OC)c(Cl)c(-c2ccc(C(=O)Nc3ccc(OCCN(C)C)cc3)c3nccnc23)c1Cl [Example 5, 8-(2,6-Dichloro-3,5-dimethoxy-phenyl)-quinoxaline-5-carboxylic acid [4-(2-dimethylamino-ethoxy)-phenyl]-amide] | < 100 nM |
| COc1cc(OC)c(F)c(-c2ccc(C(=O)Nc3ccc(CN4CCS(=O)(=O)CC4)cn3)c3nccnc23)c1F [Example 140, 8-(2,6-Difluoro-3,5-dimethoxy-phenyl)-quinoxaline-5-carboxylic acid [5-(1,1-dioxo-thiomorpholin-4-ylmethyl)-pyridin-2-yl]-amide] | < 100 nM |
| CCN1CCN(Cc2ccc(NC(=O)c3ccc(-c4c(F)c(OC)cc(OC)c4F)c4nccnc34)cn2)CC1 [Example 88, 8-(2,6-Difluoro-3,5-dimethoxy-phenyl)-quinoxaline-5-carboxylic acid [6-(4-ethyl-piperazin-1-ylmethyl)-pyridin-3-yl]-amide] | < 100 nM |
| CCN1CCN(Cc2ccc(NC(=O)c3ccc(-c4cc(OC)cc(OC)c4)c4nccnc34)nc2)CC1 [Example 115, 8-(3,5-Dimethoxy-phenyl)-quinoxaline-5-carboxylic acid [5-(4-ethyl-piperazin-1-ylmethyl)-pyridin-2-yl]-amide] | 500 to 50000 nM |
| COc1cc(OC)c(Cl)c(-c2ccc(C(=O)Nc3ccc(CN4CCS(=O)(=O)CC4)cn3)c3nccnc23)c1Cl [Example 104, 8-(2,6-Dichloro-3,5-dimethoxy-phenyl)-quinoxaline-5-carboxylic acid [5-(1,1-dioxothiomorpholin-4-ylmethyl)-pyridin-2-yl]-amide] | 100 to 500 nM |
| COc1cc(OC)c(F)c(-c2ccc(C(=O)Nc3nc(CN4CCN(C)CC4)c[nH]3)c3nccnc23)c1F [Example 141, 8-(2,6-Difluoro-3,5-dimethoxy-phenyl)-quinoxaline-5-carboxylic acid [4-(4-methyl-piperazin-1-ylmethyl)-1H-imidazol-2-yl]-amide] | < 100 nM |
| COc1cc(OC)c(Cl)c(-c2ccc(C(=O)Nc3ncc[nH]3)c3ncccc23)c1Cl [Example 161, 5-(2,6-Dichloro-3,5-dimethoxy-phenyl)-quinoline-8-carboxylic acid (1H-imidazol-2-yl)-amide] | < 100 nM |
| COc1cc(OC)c(Cl)c(-c2ccc(C(=O)Nc3ccc(CN(C)CCN(C)C)cn3)c3nccnc23)c1Cl [Example 81, 8-(2,6-Dichloro-3,5-dimethoxy-phenyl)-quinoxaline-5-carboxylic acid (5-{[(2-dimethylamino-ethyl)-methyl-amino]-methyl}-pyridin-2-yl)-amide] | < 100 nM |
| COc1cc(OC)c(Cl)c(-c2ccc(C(=O)Nc3ccc(CN4CCNCC4)nc3)c3ncccc23)c1Cl [Example 171, 5-(2,6-Dichloro-3,5-dimethoxy-phenyl)-quinoline-8-carboxylic acid (6-piperazin-1-ylmethyl-pyridin-3-yl)-amide] | 500 to 50000 nM |
| COc1cc(OC)c(Cl)c(-c2ccc(C(=O)Nc3ccc(N4CCN(C(C)C)CC4)nc3)c3nccnc23)c1Cl [Example 33, 8-(2,6-Dichloro-3,5-dimethoxy-phenyl)-quinoxaline-5-carboxylic acid [6-(4-isopropyl-piperazin-1-yl)-pyridin-3-yl]-amide] | < 100 nM |
| COc1cc(OC)c(Cl)c(-c2ccc(C(=O)Nc3ccc(CN4CCN(C)CC4)cn3)c3ncccc23)c1Cl [Example 164, 5-(2,6-Dichloro-3,5-dimethoxy-phenyl)-quinoline-8-carboxylic acid [5-(4-methyl-piperazin-1-ylmethyl)-pyridin-2-yl]-amide] | < 100 nM |
| CCN1CCN(c2ccc(NC(=O)c3ccc(-c4c(Cl)c(OC)cc(OC)c4Cl)c4nccnc34)cc2)CC1 [Example 1, 8-(2,6-Dichloro-3,5-dimethoxy-phenyl)-quinoxaline-5-carboxylic acid [4-(4-ethylpiperazin-1-yl)-phenyl]-amide] | < 100 nM |
| COc1cc(OC)c(Cl)c(-c2ccc(C(=O)Nc3nnc[nH]3)c3nccnc23)c1Cl [Example 17, 8-(2,6-Dichloro-3,5-dimethoxy-phenyl)-quinoxaline-5-carboxylic acid (4H-[1,2,4]triazol-3-yl)-amide] | 500 to 50000 nM |
| COc1cc(OC)c(Cl)c(-c2ccc(C(=O)Nc3ccc(CN4CCN(C)CC4)nc3)c3ncccc23)c1Cl [Example 168, 5-(2,6-Dichloro-3,5-dimethoxy-phenyl)-quinoline-8-carboxylic acid [6-(4-methyl-piperazin-1-ylmethyl)-pyridin-3-yl]-amide] | 100 to 500 nM |
| COc1cc(OC)c(Cl)c(-c2ccc(C(=O)Nc3nnc[nH]3)c3ncccc23)c1Cl [Example 163] | 500 to 50000 nM |
| CCN1CCN(c2ccc(NC(=O)c3ccc(-c4c(C)cccc4C)c4nccnc34)cc2)CC1 [Example 72, 8-(2,6-Dimethyl-phenyl)-quinoxaline-5-carboxylic acid [4-(4-ethyl-piperazin-1-yl)-phenyl]-amide] | 500 to 50000 nM |
| CCN1CCN(Cc2ccc(NC(=O)c3ccc(-c4c(Cl)c(OC)cc(OC)c4Cl)c4cccnc34)cn2)CC1 [Example 169, 5-(2,6-Dichloro-3,5-dimethoxy-phenyl)-quinoline-8-carboxylic acid [6-(4-ethyl-piperazin-1-ylmethyl)-pyridin-3-yl]-amide] | 100 to 500 nM |
| COc1cc(OC)c(F)c(-c2ccc(C(=O)Nc3ccc(CN4CCN(C)CC4)nc3)c3nccnc23)c1F [Example 89, 8-(2,6-Difluoro-3,5-dimethoxy-phenyl)-quinoxaline-5-carboxylic acid [6-(4-methyl-piperazin-1-ylmethyl)-pyridin-3-yl]-amide] | < 100 nM |
